Results on twelve molecules are retold here after patent US9157109B2, “Biosensors utilizing ink jet-printed biomolecule compatible sol gel inks and uses thereof” (McMaster University, priority 2009, dated 2015).

In one assay the target is T1, β-Glucuronidase (GUS) (Escherichia coli, UniProt P05804).
T1 construct: purchased Sigma-Aldrich type VII-A (catalogue number not given)
The class given is biochemical, E. coli. On the procedure:
For this, all of these substrates were dissolved separately with sodium phosphate buffer (75 mM, pH 8). […] 20 μL of GUS (final concentration of 1 U/mL) was then added into each well and incubated for 30 min to allow color development. The absorbance at 610, 400, and 380 nm was then measured using a TECAN M1000 plate reader. A digital camera was also used to take a photograph of the plate. […] (0-10 mM), and FeCl3 (2 mM) were entrapped on paper as described previous section (FIG. 13b). The sensor was then immersed into GUS solution (1 U/mL) and removed as soon as the Gus solution has reached the sensing region through FeCl3 zone followed by a certain incubation time (5, 30, and 60 min) at room temperature.
Experiments were conducted firstly in 96-well plate, in which GUS (final concentration of 1 U/mL) was entrapped in silica gel. […] (4 mM) and oxidizing agents (1 mM each) were then added to each well (designated for the individual oxidizing agent), and incubated for 30 min. The concentration gradient (0-30 mM) of FeCl3 was also observed in 96-well plate. The absorbance at 610 was measured using a TECAN M1000 plate reader for each experiment. A digital camera was also used to take a photograph of the plate. […] (3 mM) were entrapped on paper using biocompatible silica material in order to make the sensor strips, as described in the previous section. The performance of the sensor was then assayed by dipping it into the GUS solution (1 U/mL) to allow the enzyme solution to reach the sensing zone through FeCl3 zone via lateral flow. The color development times tested were 5, 30, and 60 min.

The target of assay [1] is T2, acetylcholinesterase (AChE) (Electrophorus electricus, UniProt O42275). Conditions: read-out: KM, literature value; cited from earlier work.
T2 sequence (O42275 24-633): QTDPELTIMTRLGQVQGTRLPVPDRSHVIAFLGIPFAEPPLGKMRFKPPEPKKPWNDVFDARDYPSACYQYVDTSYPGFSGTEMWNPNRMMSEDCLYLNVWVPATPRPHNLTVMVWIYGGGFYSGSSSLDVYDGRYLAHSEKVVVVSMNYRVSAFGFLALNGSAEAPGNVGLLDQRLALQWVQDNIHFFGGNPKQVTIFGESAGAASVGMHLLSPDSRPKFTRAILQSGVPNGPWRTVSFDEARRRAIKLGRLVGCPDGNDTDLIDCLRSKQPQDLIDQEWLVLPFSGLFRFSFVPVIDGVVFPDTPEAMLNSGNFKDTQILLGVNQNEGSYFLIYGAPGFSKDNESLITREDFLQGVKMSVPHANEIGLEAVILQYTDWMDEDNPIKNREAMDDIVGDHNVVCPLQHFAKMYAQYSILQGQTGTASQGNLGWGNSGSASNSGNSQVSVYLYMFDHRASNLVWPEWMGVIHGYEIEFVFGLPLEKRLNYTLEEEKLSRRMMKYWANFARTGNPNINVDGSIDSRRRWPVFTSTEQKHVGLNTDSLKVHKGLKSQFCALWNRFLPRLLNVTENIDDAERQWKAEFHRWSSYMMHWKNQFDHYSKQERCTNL
The target in assay [2] is T2, acetylcholinesterase (AChE). Briefly: biochemical. The note with it: for apparent saturated inhibition concentration / LOD: IPA lateral flow sensor; for detection limit (LOD): S/N=3, IPA lateral flow sensor. The class given is biochemical. Also on record: purchased Sigma-Aldrich. On the procedure:
20 μL of IPA (0˜5 mM) was then added into each well and incubated for 5 min to allow color development. The absorbance at 640 nm was then measured using a TECAN plate reader.
The performance of the sensor under optimized conditions can be assessed in two ways: (1) directly (normal lateral flow-based chromatography) without incubating the contaminated sample, and (2) inverted lateral flow-based chromatography with incubation of the sample. For the latter case, after incubation 5 min at room temperature, the sensor was inverted again and immersed into dH2O for bringing up IPA by lateral flow action into sensing area of the strip above the liquid level.
The sensor was then inverted again and immersed into dH2O to bring up IPA by lateral flow action into the sensing area of the strip above the liquid level. The color intensity was determined by analyzing a digital image with the ImageJ software as described above.

The target is the same in assay [3]. The assay is classed as biochemical. Also on record: purchased Sigma-Aldrich.
The target is the same in assay [4]. Briefly: Ellman colorimetric assay on ink jet printed PVAm/silica/AChE+DTNB/silica paper sensor. The protocol:
The performance can be assessed in two ways: a) by direct addition of substrate solution to sensing area, and b) by immersion into the substrate solution. […] However, in the case of direct analyte addition, only small amounts of reagent are needed (5 μL) relative to dipstick sensors (˜2 mL), reducing cost per assay. […] The color intensity of the sensing areas was quantified by obtaining a digital image (Canon A630, 8.0 MegaPixel operated in automatic mode with no flash and with the macroimaging setting on) and using ImageJ™ software to analyze the jpeg images. ImageJ™ software uses a […] color scale and for image processing the images were inverted so that areas that were originally white became black and corresponded to a color intensity of zero and while areas that were originally black became white and corresponded to […]. Based on this scale, increases in the amount of yellow color cause an increase in color intensity of the sensor strips. To account for variations in color intensity owing to differences in environmental illumination, a background subtraction (color intensity of the paper surface closest to the sensing area) was done for each data point.
The intensity was determined by analyzing a digital image with the ImageJ software as described above.
On the technique in general: In Ellman's method for cholinesterases, released thiocholine reacts with DTNB.

For assay [5] the target is unchanged. The assay is classed as biochemical. The note with it: milk and apple juice samples (pH adjusted 7-8). Details: purchased Sigma-Aldrich.
Assay [6] shares this target. The class given is biochemical. Details: purchased Sigma-Aldrich. The source holds these as a separate data set.

Like-named read-outs stand apart in the source and are kept apart here.

T1 sequence (P05804 whole entry): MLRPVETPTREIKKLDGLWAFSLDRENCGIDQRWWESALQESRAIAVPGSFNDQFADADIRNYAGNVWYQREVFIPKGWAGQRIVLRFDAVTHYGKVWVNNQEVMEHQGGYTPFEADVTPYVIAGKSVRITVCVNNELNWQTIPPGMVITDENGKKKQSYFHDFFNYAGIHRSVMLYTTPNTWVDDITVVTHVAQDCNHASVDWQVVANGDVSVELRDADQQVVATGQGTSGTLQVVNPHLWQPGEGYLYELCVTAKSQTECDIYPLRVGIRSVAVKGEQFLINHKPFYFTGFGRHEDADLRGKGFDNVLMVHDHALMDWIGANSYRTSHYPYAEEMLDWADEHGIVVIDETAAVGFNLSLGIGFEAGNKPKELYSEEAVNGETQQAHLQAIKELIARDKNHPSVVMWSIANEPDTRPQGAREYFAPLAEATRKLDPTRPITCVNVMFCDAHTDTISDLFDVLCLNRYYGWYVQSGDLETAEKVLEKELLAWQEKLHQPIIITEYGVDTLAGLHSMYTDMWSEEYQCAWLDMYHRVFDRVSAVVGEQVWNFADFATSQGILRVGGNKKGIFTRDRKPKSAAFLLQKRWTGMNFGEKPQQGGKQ

With `N#CC1=C(C#N)C(=O)C(Cl)=C(Cl)C1=O` [DDQ, 2,3-dichloro-5,6-dicyanobenzoquainone], the “blue color development with oxidizing agent” value on β-Glucuronidase (GUS) is on record as “poorest performance for blue color development”.
With `O.O.O.O.O.O.[Cl-].[Cl-].[Cl-].[Fe+3]` [FeCl3, FeCl3. 6H2O], the “blue color development with oxidizing agent” value on β-Glucuronidase (GUS) is recorded as “strongest visual color intensity”.
With `NC1CCCCC1.O=C(O)[C@H]1O[C@@H](Oc2c[nH]c3ccccc23)[C@H](O)[C@@H](O)[C@@H]1O` [IBDG, indoxyl-β-D-glucuronide cyclohexylammonium salt], the “visual color formation via GUS catalyzed hydrolysis” value at β-Glucuronidase (GUS) is listed as “relatively faint color”.
Turning to `CC(=O)Oc1ccc(N=C2C=CC(=O)C=C2)cc1` [IPA, indophenyl acetate], the Km is around 700 µM in assay [1] and around 1500 µM in assay [2].
With `O=C(O)[C@H]1O[C@@H](Oc2ccc([N+](=O)[O-])cc2)[C@H](O)[C@@H](O)[C@@H]1O` [PNPG, p-nitrophenyl-β-D-glucuronide], the “visual color formation via GUS catalyzed hydrolysis” value at β-Glucuronidase (GUS) (in solution for 30 min) was “relatively faint color”.
`CNC(=O)Oc1cccc2c1OC(C)(C)O2` [bendiocarb]: in assay [2], the midpoint of inhibition, the IC50, lay at 20 nM; the “apparent saturated inhibition concentration” value is recorded as “around 1 μM”; the “detection limit (LOD)” value is on record as “ca. 10 nM”.
For the molecule `CNC(=O)Oc1cccc2ccccc12` [carbaryl], in assay [2], half-maximal inhibition (IC50) required 50 nM, the “apparent saturated inhibition concentration” value was around 5 µM and the “detection limit (LOD)” value is recorded as around 100 nM.
On to `OCC(O)CO` [glycerol], for which the “effect of additive on AChE activity in solution” value in assay [3] is reported as “did not produce a decrease in AChE activity”.
Regarding `CCOC(=O)CC(SP(=S)(OC)OC)C(=O)OCC` (stereo not shown) [malathion], in assay [2], the half-inhibitory concentration (IC50) was around 10 nM and the LOD entry is on record as “ca. 10 μM”.
Regarding `CCOP(=O)(OCC)Oc1ccc([N+](=O)[O-])cc1` [paraoxon], in assay [4] (S/N=3, Ellman paper sensor), the “detection limit (LOD)” value was “ca. 100 nM”. Also, the “inhibition of AChE” value in assay [4] (at 100 nM inhibitor) is listed as around 25%; in assay [6] (1 mM paraoxon sprayed on apple and head lettuce) it was around 50%; in assay [6] (50 mM paraoxon sprayed on apple and head lettuce), “almost complete inhibition”. The LOD entry in assay [2] is on record as “ca. 10 μM”. The same molecule had a detection limit in assay [5] of around 10 nm.
Take Triton X-100: the “effect of additive on AChE activity in solution” value in assay [3] is “No significant loss of AChE activity”.
Take aflatoxin B1 [AfB1]: in assay [4], the “detection limit (LOD)” value is around 30 nM. In assay [4] (0.1 µM), the “inhibition of AChE” value is given as around 45%. Besides, the IC50 in assay [4] (read-out: IC50 for inhibition of AChE) is around 100 nM.

Broadly, the Km is the substrate concentration at which the rate is half of its maximum. For orientation: IC50 means the concentration that gives 50% inhibition.
